In patent US20230310388A1, “Methods and Compositions for Treating Fungal Infections” (Neoculi Pty Ltd, priority 2020, published 2023):
Converted amounts (≈) assume the structure as drawn. “And” between values parts separate entries of the source, which are not always exact repeats. Equal values may be shown once.

Assays:
Type in all cases: cell-based
Malassezia pachydermatis = test: MIC, mSAB broth microdilution (Example 1)
Text: There is no recommended Clinical & Laboratory Standards Institute (CLSI) standard for M. pachydermatis. In the literature there are a number of papers which have developed Minimum Inhibitory Concentration (MIC) methodology for Malassezia species isolated from both humans and animals (ie both lipophilic and non-lipophilic species). In all papers, the methodology has been altered from the original CLSI protocols in order to overcome four main problem areas involved in testing this yeast. • 1) Finding a suitable growth medium for Malassezia, especially the lipophilic species. […] When testing the azole group of anti-fungal agents, there is also the well known trailing end point problem with MIC determination. Trailing occurs when the turbidity continually decreases as the drug concentration increases but the suspension fails to become optically clear (partial inhibition of growth over an extended range of antifungal concentrations). The following method was originally developed by Eichenberg et al. (2003) (mSAB broth microdilution method). The mSAB method was devised to follow as closely as possible the CLSI guidelines whilst still allowing for the distinct biochemical and growth requirements of M. pachydermatis. Sabouraud dextrose broth with 1% Tween 80 was chosen as the assay medium as it allowed for excellent growth of the organism. Higher inoculum concentrations (1-4×10^6 CFU/ml) and increased time of incubation (48 to 72 hours) were used to enable sufficient growth of the test strains.

Cryptococcus neoformans [1] = test: CLSI broth microdilution MIC (Example 6)
Summary of the method: (§1)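 CLSI broth microdilution in RPMI 1640, compounds serially double-diluted, inoculum about 2×10^3 cells/mL. Incubation at 35° C for 24-48 hours. MICs determined per isolate in duplicate, with a third repeat if values differed.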

Candida albicans [2] = test: CLSI broth microdilution MIC (Example 6)
Summary of the method: as §1

Candida albicans [3] = test: CLSI broth microdilution MIC (Example 3)
Procedure: (§2) Antifungal minimum inhibitory concentration (MIC) testing was undertaken as recommended by the CLSI. Briefly, antifungal susceptibility tests were performed for amphotericin B, robenidine (NCL812) and 5 robenidine analogs (NCL062, NCL195, NCL219, NCL259, NCL265) by standard broth microdilution method (CLSI) in RPMI 1640. Various concentrations (ranging from high to low) of the selected compounds were prepared in RPMI 1640 medium by double dilution in 96-well microtitre plates. Each well contained an inoculum of approximately 2×10^3 cells/mL. The wells without addition of drugs served as negative (no inoculum) and positive (inoculum only) growth controls. Microtitre plates were incubated at 35° C. for 24-48 hours. […] Antifungal MICs were determined for each isolate in duplicate; if the values obtained were different, the MIC test was repeated a third time. Antifungal susceptibility tests were performed for amphotericin B and NCL analogs by standard broth microdilution method (CLSI). Briefly, various concentrations (ranging from high to low) of the selected compounds were prepared in RPMI 1640 medium by double dilution in the 96-well plates. Each well contained an inoculum of approximately 2×10^3 cells/mL. The wells without addition of drugs served as a negative control. Micro plates were incubated at 35° C. for 48 hour and read spectrophotometrically at 600 nm, using a microplate reader (Multiskan-EX; Thermo Elect. Corp., USA).

Candida parapsilosis = test: CLSI broth microdilution MIC (Example 3); settings: Candida parapsilosis ATCC 22019
Procedure: as §2

Cryptococcus neoformans [4] = test: CLSI broth microdilution MIC (Example 5)
Summary of the method: (§3)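 Broth microdilution per CLSI in RPMI 1640 with twofold compound dilutions, inoculum about 2×10^3 cells/mL. Plates incubated at 35° C for 24-48 hours. MIC determined per isolate in duplicate, with a third repeat when the two values differed.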

Candida albicans [5] = test: CLSI broth microdilution MIC (Example 5)
Summary of the method: as §3

[6] = Example 6 isolates, summary in words

MIC (Malassezia pachydermatis; Malassezia isolate M1-017): 1 µg/mL (≈ 2.78 µM) | MIC (Malassezia pachydermatis; Malassezia isolate M-018): 1 µg/mL (≈ 2.78 µM) | MIC (Malassezia pachydermatis; Malassezia isolate M-020): 1 µg/mL (≈ 2.78 µM) | MIC (Malassezia pachydermatis; Malassezia isolate M-036): 1 µg/mL (≈ 2.78 µM) | MIC (Malassezia pachydermatis; Malassezia isolate M-037): 1 µg/mL (≈ 2.78 µM) | MIC (Malassezia pachydermatis; Malassezia isolate M-038): 1 µg/mL (≈ 2.78 µM) | MIC (Malassezia pachydermatis; Malassezia isolate M-040): 0.5 µg/mL and 1 µg/mL | MIC (Malassezia pachydermatis; Malassezia isolate M-052): 1 µg/mL (≈ 2.78 µM) | MIC (Malassezia pachydermatis; Malassezia isolate M-055): 1 µg/mL (≈ 2.78 µM) | MIC (Malassezia pachydermatis; Malassezia isolate M-060): 1 µg/mL (≈ 2.78 µM) | MIC (Malassezia pachydermatis; Malassezia isolate M-066): 1 µg/mL (≈ 2.78 µM) | MIC (Malassezia pachydermatis; Malassezia isolate M-067): 0.5 µg/mL and 1 µg/mL | MIC (Malassezia pachydermatis; Malassezia isolate M-069): 1 µg/mL (≈ 2.78 µM) | MIC (Cryptococcus neoformans [1]; Cryptococcus neoformans SA1): 2 µg/mL (≈ 5.56 µM) | MIC (Cryptococcus neoformans [1]; Cryptococcus neoformans SA2): 2 µg/mL (≈ 5.56 µM) | MIC (Cryptococcus neoformans [1]; human clinical isolate C. neoformans serotype A/D hybrid): 2 µg/mL (≈ 5.56 µM) | MIC (Cryptococcus neoformans [1]; human clinical isolate C. neoformans var grubii 16-90050434): 2 µg/mL (≈ 5.56 µM) | MIC (Cryptococcus neoformans [1]; human clinical isolate C. neoformans var grubii 17-90028233): 2 µg/mL (≈ 5.56 µM) | MIC (Cryptococcus neoformans [1]; human clinical isolate C. neoformans var grubii 17-93996464): 2 µg/mL (≈ 5.56 µM) | MIC (Cryptococcus neoformans [1]; human clinical isolate C. neoformans var grubii 17-93996964): 2 µg/mL (≈ 5.56 µM) | MIC (Candida albicans [2]; C. albicans SA3): 2 µg/mL (≈ 5.56 µM) | MIC (Candida albicans [2]; Candida albicans ATCC 90028): 2 µg/mL (≈ 5.56 µM) | MIC (Candida albicans [3]; Candida albicans ATCC 90028, 1st): 2 µg/mL (≈ 5.56 µM) | MIC (Candida albicans [3]; Candida albicans ATCC 90028, 2nd): 2 µg/mL (≈ 5.56 µM) | MIC (Candida albicans [3]; Candida albicans, 1st): 2 µg/mL (≈ 5.56 µM) | MIC (Candida albicans [3]; Candida albicans, 2nd): 2 µg/mL (≈ 5.56 µM) | MIC (Candida parapsilosis; 1st): 1 µg/mL (≈ 2.78 µM) | MIC (Candida parapsilosis; 2nd): 2 µg/mL (≈ 5.56 µM) | MIC (Cryptococcus neoformans [4]; Cryptococcus neoformans SA1): 2 µg/mL (≈ 5.56 µM) | MIC (Cryptococcus neoformans [4]; Cryptococcus neoformans SA2): 2 µg/mL (≈ 5.56 µM) | MIC (Candida albicans [5]; C. albicans SA3): 2 µg/mL (≈ 5.56 µM) | MIC (Candida albicans [5]; Candida albicans ATCC 90028): 2 µg/mL (≈ 5.56 µM) | MIC (Candida albicans [5]; clinical isolate C. albicans 12-93301752 Azole Resistant): 4 µg/mL (≈ 11.1 µM) | MIC (Candida albicans [5]; clinical isolate C. albicans 14-90045999 Azole Resistant): >16 µg/mL | MIC (Candida albicans [5]; clinical isolate C. albicans 15-45171061): 8 µg/mL (≈ 22.3 µM) | MIC (Candida albicans [5]; clinical isolate C. albicans 15-91329871): 8 µg/mL (≈ 22.3 µM) | MIC (Candida albicans [5]; clinical isolate C. albicans 16-24136919 Azole Resistant): 4 µg/mL (≈ 11.1 µM) | MIC (Candida albicans [5]; clinical isolate C. albicans 16-46177400): 4 µg/mL (≈ 11.1 µM) | MIC (Candida albicans [5]; clinical isolate C. albicans 16-90050810): 4 µg/mL (≈ 11.1 µM) | MIC (Candida albicans [5]; clinical isolate C. albicans 16-90054237): 4 µg/mL (≈ 11.1 µM) | MIC (Candida albicans [5]; clinical isolate C. albicans 18-144-00196): 4 µg/mL (≈ 11.1 µM) | MIC (Candida albicans [5]; clinical isolate C. albicans 18-148-08188 Azole Resistant): >16 µg/mL
SMILES: Cc1ccc(/C=N/Nc2cc(N/N=C/c3ccc(C)cc3)nc(N)n2)cc1 [NCL195]
activity against all 13 isolates of Malassezia pachydermatis (Malassezia pachydermatis; summary in words): highly active | activity against all isolates (Cryptococcus neoformans [1]; [6]): active | relative potency among tested compounds (Cryptococcus neoformans [1]; [6]): most potent activity | activity against one or more isolates of Cryptococcus neoformans and Candida albicans (Candida albicans [5]; summary in words): highly active
